Broadly, the pIC50 is the negative decadic logarithm of the IC50, by convention in mol/L.

In the experiment the target is T1, human Bradykinin B1 receptor (Homo sapiens, UniProt P46663).
T1 construct: host or cells: CHO-K1
T1 sequence (P46663 1-353): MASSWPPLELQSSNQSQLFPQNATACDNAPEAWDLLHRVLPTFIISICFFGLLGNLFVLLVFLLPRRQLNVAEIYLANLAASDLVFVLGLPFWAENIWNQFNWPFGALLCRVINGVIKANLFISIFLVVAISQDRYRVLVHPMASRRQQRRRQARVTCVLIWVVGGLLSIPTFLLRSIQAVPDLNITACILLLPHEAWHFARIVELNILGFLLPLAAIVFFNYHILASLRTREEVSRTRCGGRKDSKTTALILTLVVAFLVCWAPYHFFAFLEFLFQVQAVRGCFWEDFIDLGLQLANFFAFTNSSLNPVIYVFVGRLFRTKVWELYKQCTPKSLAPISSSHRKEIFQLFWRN
The experiment in a line: Calcium flux assay (FLIPR), CHO-K1 cells expressing human Bradykinin B1 receptor, absence of 0.1% BSA (hB1 free IC50). The note with it: absence of 0.1% BSA in assay buffer. Type of experiment: cell-based. In outline: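 Peak FLIPR fluorescence (538 nm) after B1 agonist peptide addition gave IC50s, scaled between DMSO and full block by 20 µM Lys-(Des-Arg-Leu)-Bradykinin. Compounds were preincubated 30 min at 28° C with calcium-dye-loaded CHO-K1 cells expressing human B1, at 8 concentrations in triplicate, 1% DMSO final.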

pIC50: −log10 of the molar value.

For `O=C(O)c1cc(NC(=O)C2(c3ccc(C(F)(F)F)cc3F)CC2)ccc1-c1cc2ccccc2s1` [Example 1, 2-(1-Benzothiophen-2-yl)-5-[({1-[2-fluoro-4-(trifluoromethyl)phenyl]cyclopropyl}carbonyl)amino]benzoic acid], the pIC50 was 8.19. In the case of `CCC(F)(F)c1ccc(-c2ccc(NC(=O)C3(c4ccc(C(F)(F)F)cc4F)CC3)cc2C(=O)O)cn1` [Example 2, 2-[6-(1,1-Difluoropropyl)pyridin-3-yl]-5-[({1-[2-fluoro-4-(trifluoromethyl)-phenyl]cyclopropyl}carbonyl)amino]benzoic acid], the pIC50 was 7.62. For `O=C(O)c1cc(NC(=O)C2(c3ccc(C(F)(F)F)cc3F)CC2)ccc1-c1cnn(C2CCC2)c1` [Example 3, 2-(1-Cyclobutyl-1H-pyrazol-4-yl)-5-[({1-[2-fluoro-4-(trifluoromethyl)phenyl]cyclopropyl}carbonyl)amino]benzoic acid], the pIC50 was 7.74. Turning to `O=C(O)c1cc(NC(=O)C2(c3ccc(OC(F)(F)F)cc3F)CC2)ccc1-c1ccc(C(F)F)nc1` [Example 5, 2-[6-(Difluoromethyl)pyridin-3-yl]-5-[({1-[2-fluoro-4-(trifluoromethoxy)phenyl]cyclopropyl}carbonyl)amino]benzoic acid], the pIC50 was 7.07. Then `O=C(O)c1cc(NC(=O)C2(c3ccc(C(F)(F)F)cc3F)CC2)ccc1-c1ccc(C(F)(F)F)nc1` [Example 6, 5-[({1-[2-Fluoro-4-(trifluoromethyl)phenyl]cyclopropyl}carbonyl)amino]-2-[6-(trifluoromethyl)pyridin-3-yl]benzoic acid], with 6.68; and `O=C(O)c1cc(NC(=O)C2(c3ccc(C(F)(F)F)cc3F)CC2)cc(F)c1-c1ccc(C(F)(F)F)nc1` [Example 29, 3-Fluoro-5-[({1-[2-fluoro-4-(trifluoromethyl)phenyl]cyclopropyl}carbonyl)amino]-2-[6-(trifluoromethyl)pyridin-3-yl]benzoic acid], with 7.89; and `O=C(O)c1cc(NC(=O)C2(c3ccc(C(F)(F)F)cc3F)CC2)cc(F)c1-c1cnn(C2CCC2)c1` [Example 42, 2-(1-Cyclobutyl-1H-pyrazol-4-yl)-3-fluoro-5-[({1-[2-fluoro-4-(trifluoromethyl)phenyl]cyclopropyl}carbonyl)amino]benzoic acid], with 8.20.

For the origin of these results see patent publication US12023319B2, “Carboxylic acid aromatic amides” (priority 2016, dated 2024).
